Drawing on ChEMBL document CHEMBL1158229, “Two new lignans, interiotherins A and B, as anti-HIV principles from Kadsura interior” (J Nat Prod, 1996), this text covers Activity and selectivity ratio for five compounds.

For one data set, the system named is H9. Put plainly: Cytotoxicity against mock-infected human H9 cells after 4 days. Type of data set: cell-based. As to conditions: h9, 96 h; call rule not given here.
The nature of data set [1]: Therapeutic index, ratio of IC50 for mock-infected human H9 cells to EC50 for HIV1 3B. It is filed as cell-based. As to conditions: for Activity: h9; for selectivity ratio: read-out: TI.

For the compound `C/C=C(/C)C(=O)O[C@H]1c2cc3c(c(OC)c2-c2c(cc4c(c2OC)OCO4)C[C@H](C)[C@@H]1C)OCO3` [ANGELOYLGOMISIN R], the Activity result is recorded as “Not Active” with H9 and “Active” in data set [1]. `COc1c2c(cc3c1-c1c(cc4c(c1OC)OCO4)[C@H](OC(=O)c1ccccc1)[C@@H](C)[C@@H](C)C3)OCO2` [INTERIOTHERIN A]: the selectivity ratio in data set [1] was 13.2.

`C/C=C(/C)C(=O)O[C@H]1c2cc3c(c(OC)c2-c2c(cc4c(c2OC)OCO4)C[C@H](C)[C@]1(C)O)OCO3` [INTERIOTHERIN B]: the Activity entry was “Not Active” in the data set on H9 and “Active” in data set [1]. As for `COc1c2c(cc3c1-c1c(cc4c(c1OC)OCO4)[C@H](OC(=O)c1ccccc1)[C@@](C)(O)[C@@H](C)C3)OCO2` [SCHISANTHERIN D], in data set [1], the selectivity ratio was 50.6. Turning to `Cc1cn([C@H]2C[C@H](N=[N+]=[N-])[C@@H](CO)O2)c(=O)[nH]c1=O` [ZIDOVUDINE], the selectivity ratio in data set [1] was 250000.
